Data set [1] concerns L1210. The data set is described as follows: Antitumor activity against mouse L1210 cells […] in mouse assessed as increase in life span at 200 mg/kg, ip qd administered on day 2 and day 6 relative to control. Format: functional. Particulars: route intraperitoneal.
Data set [2] can be described thus: Inhibition of pigeon liver dihydrofolate reductase. Set-up: species or system Columba livia. The note with it: read-out: I50.
Data set [3] deals with KB. Nature of the data set: Cytotoxicity against human KB cells. Particulars: read-out: ED50 (the source's name). Format: functional.
Data set [4] concerns KB. The data set is described as follows: Potency index, ratio of ED50 for MTX to ED50 for compound against human KB cells. Format: functional.
A further data set has as its system Columba livia. Nature of the data set: Potency index, ratio of I50 for MTX to I50 for compound against pigeon liver dihydrofolate reductase.
Data set [5] in a line: Dissociation constant, pKa of the compound. Format: physicochemical.
The subject of data set [6] is L1210. The data set is described as follows: Antitumor activity against mouse L1210 cells […] in mouse assessed as increase in life span at 1.5 mg/kg, ip qd from day 1 to day 9 relative to control. Format: functional. Particulars: route intraperitoneal.
Another data set concerns HEp-2. Nature of the data set: Potency index, ratio of ED50 for MTX to ED50 for compound against human Hep2 cells. In kind it is functional.
A short description of data set [7]: Cytotoxicity against human Hep2 cells. In kind it is functional. Particulars: HEp-2, read-out: ED50 (the source's name).
For data set [8], the system named is L1210. The data set is described as follows: Antitumor activity against mouse L1210 cells […] in mouse assessed as increase in life span at 100 mg/kg, ip qd from day 1 to day 9 relative to control. In kind it is functional. Particulars: route intraperitoneal.
The test system of data set [9] is L1210. The data set is described as follows: Antitumor activity against mouse L1210 cells […] in mouse assessed as increase in life span at 25 mg/kg, ip qd from day 1 to day 9 relative to control. In kind it is functional. The note with it: route intraperitoneal.
In data set [10] the test system is L1210. The data set is described as follows: Antitumor activity against mouse L1210 cells […] in mouse assessed as increase in life span at 200 mg/kg, ip qd from day 1 to day 9 relative to control. Format: functional. The note with it: route intraperitoneal.
Data set [11] concerns L1210. The data set is described as follows: Antitumor activity against mouse L1210 cells […] in mouse assessed as increase in life span at 500 mg/kg, ip qd from day 1 to day 9 relative to control. Format: functional. The note with it: route intraperitoneal.
Data set [12] concerns L1210. Nature of the data set: Antitumor activity against mouse L1210 cells […] in mouse assessed as increase in life span at 20 mg/kg, ip qd from day 1 to day 9 relative to control. In kind it is functional. Particulars: route intraperitoneal.
The test system of data set [13] is L1210. Nature of the data set: Antitumor activity against mouse L1210 cells […] in mouse assessed as increase in life span at 0.67 mg/kg, ip qd from day 1 to day 9 relative to control. In kind it is functional. Particulars: route intraperitoneal.
For data set [14], the system named is L1210. The data set is described as follows: Antitumor activity against mouse L1210 cells […] in mouse assessed as increase in life span at 10 mg/kg, ip qd from day 1 to day 9 relative to control. Format: functional. Particulars: route intraperitoneal.
The subject of data set [15] is L1210. The data set is described as follows: Antitumor activity against mouse L1210 cells […] in mouse assessed as increase in life span at 0.44 mg/kg, ip qd from day 1 to day 9 relative to control. In kind it is functional. Particulars: route intraperitoneal.
In data set [16] the test system is L1210. Nature of the data set: Antitumor activity against mouse L1210 cells […] in mouse assessed as increase in life span at 1.3 mg/kg, ip qd from day 1 to day 9 relative to control. Format: functional. Particulars: route intraperitoneal.
In data set [17] the test system is L1210. Nature of the data set: Antitumor activity against mouse L1210 cells […] in mouse assessed as increase in life span at 50 mg/kg, ip qd from day 1 to day 9 relative to control. Format: functional. The note with it: route intraperitoneal.

The values below come from ChEMBL document CHEMBL3243930 (J Med Chem, 1979).

≈ marks a conversion by molar mass, not a printed value.

The term ILS denotes how much longer treated animals lived than controls. Broadly, the pKa is the negative logarithm of the acid dissociation constant. A high value points to a weaker acid or stronger base.

Take `CN(Cc1cnc2nc(N)c(Br)c(N)c2n1)c1ccc(C(=O)N[C@@H](CCC(=O)O)C(=O)O)cc1`: the increase in lifespan (ILS) at 200 mg/kg in the data set with L1210 [1] came out at 1%. The IC50 in data set [2] was found to be 2.5 µM. The EC50 with KB [3] was 76 mg/L (≈ 143 µM). Further, the “Ratio ED50” value in the data set on KB [4] was 19000. Further, the Ratio in the data set with Columba livia was determined as 190. Further, the pKa in [5] amounted to 5.1.
For `Nc1nc(N)c2nc(CNc3ccc(C(=O)NCC(=O)O)cc3)cnc2n1`, the IC50 in data set [2] was found to be 1.1 µM. Also, the EC50 in the data set with KB [3] came to 88 mg/L (≈ 239 µM). Further, the “Ratio ED50” value in the data set on KB [4] was 22000. The Ratio in the data set on Columba livia worked out at 42.
Take `CN(Cc1cnc2nc(N)c([N+](=O)[O-])c(N)c2n1)c1ccc(C(=O)N[C@@H](CCC(=O)O)C(=O)O)cc1`: in the data set on L1210 [1], the increase in lifespan (ILS) at 200 mg/kg was found to be 1%. Besides, the IC50 in data set [2] was found to be 38 µM. Besides, in the data set with KB [3], the EC50 is above 100 mg/L. Besides, the Ratio in the data set on Columba livia is 1400. In data set [5], the pKa came out at 4.3.
As for `CN(Cc1cnc2nc(N)nc(N)c2n1)c1ccc(C(=O)N[C@@H](CCC(=O)O)C(=O)O)cc1` [METHOTREXATE], in data set [2], the IC50 stood at 0.026 µM. Moreover, the EC50 in the data set on KB [3] is 0.004 mg/L (≈ 0.0088 µM). Also, in the data set with L1210 [6], the ILS at 1.5 mg/kg amounted to 72%.
As to `CN(Cc1cnc2nc(N)cc(N)c2n1)c1ccc(C(=O)N[C@@H](CCC(=O)O)C(=O)O)cc1`, in the data set with HEp-2, the “Ratio ED50” value was 13. Besides, the IC50 in [2] was 0.063 µM. For the same molecule, the EC50 in data set [7] amounted to 0.05 mg/L (≈ 0.11 µM). In the data set on L1210 [8], the ILS at 100 mg/kg is 64%. In addition, the Ratio in the data set on Columba livia came out at 4.8.
For `Nc1nc(N)c2nc(CNc3ccc(C(=O)NCCCC(=O)O)cc3)cnc2n1`, the ILS at 25 mg/kg in the data set with L1210 [9] worked out at 1%. Moreover, the IC50 in data set [2] was 0.38 µM. In addition, in the data set on KB [3], the EC50 is above 100 mg/L. Also, the Ratio in the data set on Columba livia was determined as 15.
`Nc1nc(N)c2nc(CNc3ccc(S(=O)(=O)N[C@@H](CCC(=O)O)C(=O)O)cc3)cnc2n1`: the IC50 in data set [2] was found to be 1.1 µM. For the same molecule, the EC50 with KB [3] is 45 mg/L (≈ 94.4 µM). For the same molecule, the increase in life span (ILS) at 100 mg/kg in the data set on L1210 [8] was found to be 27%. Besides, the “Ratio ED50” value in the data set with KB [4] turned out to be 11000. The Ratio in the data set on Columba livia was 39.
Turning to `Nc1nc(N)c2nc(CNc3ccc(CC(=O)N[C@@H](CC(=O)O)C(=O)O)cc3)cnc2n1`, the IC50 in data set [2] worked out at 1 µM. Besides, in the data set on KB [3], the EC50 is above 100 mg/L. Moreover, the increase in lifespan (ILS) at 200 mg/kg in the data set with L1210 [10] amounted to 29%. Besides, the Ratio in the data set with Columba livia was 38.
For the molecule `CCN(Cc1cnc2nc(N)nc(N)c2n1)c1c(Cl)cc(C(=O)N[C@@H](CCC(=O)O)C(=O)O)cc1Cl`, the IC50 in data set [2] worked out at 0.05 µM. Moreover, the EC50 with KB [3] worked out at 0.022 mg/L (≈ 0.0409 µM). For the same molecule, the ILS at 100 mg/kg with L1210 [8] was found to be 70%. Moreover, the “Ratio ED50” value in the data set with KB [4] is 5.5. For the same molecule, in the data set with Columba livia, the Ratio turned out to be 1.1.
In the case of `Nc1nc(N)c2nc(CNc3ccc(CCC(=O)N[C@@H](CCC(=O)O)C(=O)O)cc3)cnc2n1`, the IC50 in [2] turned out to be 0.46 µM. Further, in the data set with KB [3], the EC50 was 37 mg/L (≈ 79 µM). Further, the ILS at 500 mg/kg with L1210 [11] stood at 1%. Also, in the data set on KB [4], the “Ratio ED50” value is 9300. The Ratio in the data set on Columba livia was 33.
Consider `Nc1nc(N)c2nc(CNc3ccc(C(=O)NC(CCCCC(=O)O)C(=O)O)cc3)cnc2n1` (stereo unspecified), for which the IC50 in data set [2] amounted to 0.013 µM. Also, in the data set with KB [3], the EC50 was 0.025 mg/L (≈ 0.0534 µM). The ILS at 20 mg/kg with L1210 [12] turned out to be 57%. In the data set with KB [4], the “Ratio ED50” value was 6.3. The Ratio in the data set with Columba livia came to 0.5.
Regarding `CN(CCCCC(=O)N[C@@H](CCC(=O)O)C(=O)O)Cc1cnc2nc(N)nc(N)c2n1`, the IC50 in [2] was 20 µM. Also, in the data set with KB [3], the EC50 was above 100 mg/L. For the same molecule, the Ratio with Columba livia amounted to 770.
As to `Nc1nc(N)c2nc(CN(c3ccccc3)c3ccc(C(=O)N[C@@H](CCC(=O)O)C(=O)O)cc3)cnc2n1`, the IC50 in data set [2] came out at 0.28 µM. Further, the EC50 with KB [3] was 26 mg/L (≈ 50.3 µM). Also, in the data set on KB [4], the “Ratio ED50” value is 6500. Further, in the data set with Columba livia, the Ratio was determined as 11.
As to `Nc1nc(N)c2nc(CNc3ccc(CC(=O)N[C@@H](CCC(=O)O)C(=O)O)cc3)cnc2n1`, in [2], the IC50 worked out at 0.38 µM. For the same molecule, the EC50 in the data set with KB [3] is 41 mg/L (≈ 90.2 µM). Besides, the ILS at 500 mg/kg in the data set on L1210 [11] came out at 35%. Besides, the “Ratio ED50” value in the data set with KB [4] turned out to be 10000. In addition, in the data set with Columba livia, the Ratio stood at 15.
`Nc1nc(N)c2nc(CNc3ccc(C(=O)N[C@@H](CCC(=O)O)C(=O)O)cc3)cnc2n1` [AMINOPTERIN]: the ILS at 0.67 mg/kg with L1210 [13] is 74%. Further, the IC50 in data set [2] turned out to be 0.026 µM. Also, the EC50 in the data set on KB [3] came to 0.003 mg/L (≈ 0.00681 µM). Further, the “Ratio ED50” value in the data set on KB [4] is listed as 0.75. Besides, in the data set with Columba livia, the Ratio came to 1.
In the case of `CCN(Cc1cnc2nc(N)nc(N)c2n1)c1ccc(C(=O)N[C@@H](CCC(=O)O)C(=O)O)cc1`, the IC50 in data set [2] came to 0.045 µM. For the same molecule, the EC50 in the data set with KB [3] was determined as 0.005 mg/L (≈ 0.0107 µM). For the same molecule, the ILS at 10 mg/kg in the data set on L1210 [14] came out at 117%. In the data set on KB [4], the “Ratio ED50” value is recorded as 1.3. In addition, the Ratio with Columba livia worked out at 1.
Take `Nc1nc(N)c2nc(CNc3ccc(C(=O)N[C@@H](CCC(=O)O)C(=O)O)nc3)cnc2n1`: in data set [2], the IC50 came out at 0.03 µM. In the data set on L1210 [15], the increase in lifespan (ILS) at 0.44 mg/kg came to 69%. For the same molecule, in the data set with KB [3], the EC50 is 0.006 mg/L (≈ 0.0136 µM). In addition, the “Ratio ED50” value in the data set with KB [4] is listed as 1.5. Moreover, in the data set on Columba livia, the Ratio was 1.2.
For `Nc1nc(N)c2nc(CN(Cc3ccccc3)c3ccc(C(=O)N[C@@H](CCC(=O)O)C(=O)O)cc3)cnc2n1`, the IC50 in [2] stood at 14 µM. In addition, the EC50 with KB [3] was above 100 mg/L. The Ratio in the data set with Columba livia is 310.
Take `Nc1nc(N)c2nc(COc3ccc(C(=O)N[C@@H](CCC(=O)O)C(=O)O)cc3)cnc2n1`: the IC50 in data set [2] stood at 0.51 µM. For the same molecule, the EC50 in the data set with KB [3] amounted to 3.5 mg/L (≈ 7.93 µM). Also, the increase in life span (ILS) at 1.3 mg/kg with L1210 [16] is 32%. Also, in the data set with KB [4], the “Ratio ED50” value is reported as 875. For the same molecule, the Ratio with Columba livia came to 20.
On to `CN(Cc1ccc(C(=O)N[C@@H](CCC(=O)O)C(=O)O)cc1)Cc1cnc2nc(N)nc(N)c2n1`, for which the IC50 in data set [2] amounted to 0.75 µM. In addition, the EC50 in the data set with KB [3] stood at 0.043 mg/L (≈ 0.0918 µM). Further, the ILS at 50 mg/kg with L1210 [17] came to 36%. Also, the “Ratio ED50” value in the data set on KB [4] was 11. Further, the Ratio with Columba livia was 29.
